Assay results taken from ChEMBL document CHEMBL1132023, “Synthesis and anticancer evaluation of certain alpha-methylene-gamma-(4-substituted phenyl)-gamma-butyrolactone bearing thymine, uracil, and 5-bromouracil” (1999).

Experiments:
Assay type in all cases: functional
Conditions in all cases: Homo sapiens
[1] = system: ACHN; experiment: In vitro inhibition of Renal Cancer ACHN cell lines
[2] = system: PC-3; experiment: In vitro inhibition of Prostate Cancer PC-3 cell lines
[3] = system: TK-10; experiment: In vitro inhibition of Renal Cancer TK-10 cell lines
[4] = system: COLO 205; experiment: In vitro inhibition of Colon Cancer COLO 205 cell lines
[5] = system: DU-145; experiment: In vitro inhibition of Prostate Cancer DU-145 cell lines
[6] = system: A549; experiment: In vitro inhibition of Non-Small Cell Lung Cancer A549/ATCC cell lines
[7] = system: NCI-H460; experiment: In vitro inhibition of Non-Small Cell Lung Cancer NCI-H460 cell lines
[8] = system: RPMI-8226; experiment: In vitro inhibition of Leukemia RPMI-8226 cell lines
[9] = system: HL-60; experiment: In vitro inhibition of Leukemia HL-60(TB) cell lines(most sensitive cell)
[10] = system: SW-620; experiment: In vitro inhibition of Colon Cancer SW-620 cell lines
[11] = system: Hs-578T; experiment: In vitro inhibition of Breast Cancer Hs 578.T cell lines
[12] = system: SNB-19; experiment: In vitro inhibition of CNS Cancer SNB-19 cell lines(least sensitive cell)
[13] = system: LOX IMVI; experiment: In vitro inhibition of Melanoma LOX IM VI cell lines
[14] = system: MDA-MB-435; experiment: In vitro inhibition of Breast Cancer MDA-MB-435 cell lines
[15] = system: U-251; experiment: In vitro inhibition of CNS Cancer U-251 cell lines
[16] = system: IGROV-1; experiment: In vitro inhibition of Ovarian Cancer IGROV1 cell lines
[17] = system: Malme-3M; experiment: In vitro inhibition of Melanoma MALME-3M cell lines
[18] = system: SK-OV-3; experiment: In vitro inhibition of Ovarian Cancer SK-OV-3 cell lines
[19] = system: COLO 205; experiment: In vitro inhibition of Colon Cancer COLO 205 cell lines( most sensitive cell)
[20] = system: SNB-19; experiment: In vitro inhibition of CNS Cancer SNB-19 cell lines
[21] = system: HL-60; experiment: In vitro inhibition of Leukemia HL-60(TB) cell lines
[22] = system: Hs-578T; experiment: In vitro inhibition of Breast Cancer Hs 578.T cell lines( least sensitive cell)
[23] = system: RPMI-8226; experiment: In vitro inhibition of Leukemia RPMI-8226 cell lines( most sensitive cell)
[24] = system: NCI-H460; experiment: In vitro inhibition of Non-Small Cell Lung Cancer NCI-H460 cell lines(least sensitive cell)
[25] = system: HL-60; experiment: In vitro inhibition of Leukemia HL-60(TB) cell lines ( most sensitive cell)
[26] = system: SNB-19; experiment: In vitro inhibition of CNS Cancer SNB-19 cell lines( least sensitive cell)
[27] = system: HL-60; experiment: In vitro inhibition of Leukemia HL-60(TB) cell lines( most sensitive cell)
[28] = system: NCI-H460; experiment: In vitro inhibition of Non-Small Cell Lung Cancer NCI-H460 cell lines( least sensitive cell)
[29] = system: Hs-578T; experiment: In vitro inhibition of Breast Cancer Hs 578.T cell lines(The least sensitive cell)

Structure (SMILES)	GI50 [1] [µM]	GI50 [2] [µM]	GI50 [3] [µM]	GI50 [4] [nM]	GI50 [5] [µM]	GI50 [6] [µM]	GI50 [7] [µM]	GI50 [8] [nM]	GI50 [10] [nM]	GI50 [11] [µM]	GI50 [13] [nM]	GI50 [14] [µM]	GI50 [15] [µM]	GI50 [16] [µM]	GI50 [17] [µM]	GI50 [18] [µM]	GI50 [19] [nM]	GI50 [20] [µM]	GI50 [21] [nM]	GI50 [22] [µM]	also measured
C=C1CC(Cn2cc(Br)c(=O)[nH]c2=O)(c2ccc(-c3ccccc3)cc2)OC1=O (configuration not stated)	2.51	1.26	0.126	355	1.07	6.17	10.5	129	282	4.79	851	1	5.75	1.2	1.55	6.03					GI50 [9]: 45.7 nM; GI50 [12]: 14.5 µM
C=C1CC(Cn2ccc(=O)[nH]c2=O)(c2ccc(F)cc2)OC1=O (configuration not stated)	13.2	16.2	14.5		15.1	17	13.8	5370	4900		6030	10.7	15.5	13.2	7.59	15.1	3020	14.8	3720	20.4	
C=C1CC(Cn2cc(Br)c(=O)[nH]c2=O)(c2ccc(F)cc2)OC1=O (configuration not stated)	4.47	11.7	17	2240	16.2				2750	14.5	3390	4.07	8.51	12.9	4.57	16.6		19.5	1740		GI50 [23]: 468 nM; GI50 [24]: 20.9 µM
C=C1CC(Cn2cc(C)c(=O)[nH]c2=O)(c2ccc(-c3ccccc3)cc2)OC1=O (configuration not stated)	7.59	2.51	1.58	1410	1.66	12.3	13.8	646	1020		1740	2	13.2	1.91	3.72	13.5		16.6		25.7	GI50 [25]: 234 nM
C=C1CC(Cn2ccc(=O)[nH]c2=O)(c2ccc(-c3ccccc3)cc2)OC1=O (configuration not stated)	2.29	1.32	0.955	174	0.2	10.7	10.2	214	170	7.41	209	0.49	10	0.708	1.58	10.5					GI50 [26]: 17.4 µM; GI50 [27]: 105 nM
C=C1CC(Cn2cc(C)c(=O)[nH]c2=O)(c2ccc(F)cc2)OC1=O (configuration not stated)	3.55	9.12	4.57		7.59	17.8		3550	3630		4270	5.62	11.5	5.5	3.55	16.2	1580	14.8	2570		GI50 [28]: 19.1 µM; GI50 [29]: 19.1 µM
